Source: US5972894A, “Peptides having potassium channel opener activity” (Cytran, Inc., priority 1997, dated 1999)

Columns and labels:
[1] = test system: Isolated Rat Heart; assay: Inotropic function of normal isolated rat heart, Langendorff perfusion; conditions: dose 0.01 mg
Source text: Rat heart specimens were obtained surgically from white random-bred male rats weighing approximately 250 g. The hearts were established in culture using retrograde heart perfusion according to the Langendorff method performed with a standard oxygenated (95% O2 and 5% CO2) Krebs-Henseleit solution through a glass aorta cannula. The retroperfusion pressure forces the aortic valves shut. In this way, the oxygenated solution passed only through the coronary vasculature of the heart such that both ventricles remain effectively empty. Perfusion conditions: An average constant perfusate flow rate of 15 to 25 ml/min was maintained with a constant perfusate pressure of 80 cm H2 O. Pressure Measurements: A latex balloon catheter connected with a pressure transducer ([…], Sweden) was inserted into the left ventricle of the heart to measure parameters of the inotropic function of the heart. The intraventricle pressure variation curve for the left ventricle was recorded with a polygraph. Experimental Protocol: GE and VT served as the test substances. After a 30-minute adaptation of the heart to the organ culture perfusion conditions, a set of basal (control) measurements was taken, as described in (i) through (v) below. […] See GOODMAN […] THE PHARMACOLOGICAL BASIS OF THERAPEUTICS 160 (Goodman et al., eds., 7th ed. 1985), incorporated herein by reference in its entirety for all purposes. Each dose of each respective test or reference substance was tested on four different rat hearts. The inotropic functions of each of the four rat hearts were evaluated by measuring: (i) the systolic pressure in the left ventricle ([…] diastolic pressure in the left ventricle ([…] evolving pressure (Pev. =[…]); (iv) the maximal rate of increase of left ventricle pressure (+dp/dtmax mm Hg/sec); and (v) the maximal rate of decrease of left ventricle pressure (-dp/dtmax mm Hg/sec). In addition, the heart rate (HR) of each heart was determined from the pressure variation recordings made of the left ventricle pressure.

[2] = test system: rats; assay: Arterial blood pressure in anesthetized rats; format: in vivo; conditions: 5 mg/kg i.v.
Method: White random-bred male rats weighing approximately 200 g were employed for this study. Each dose of each respective test or control substance was administered to a group of five rats. GE and VT were employed as test substances and were administered intravenously at doses of 0.01, 0.1, 1.0, and 10.0 mg/kg. Physiological saline (0.2 ml) served as the negative control substance. The ganglionic blocking agent, pentamine, served as the positive control substance and was tested at a dose of 5 mg/kg. Following administration of the test substance, positive control substance, or negative control substance, the arterial blood pressure of each animal was monitored.
Prior to administration of the test or control substance, each animal was anesthetized with Chloralose and then both its carotid artery and jugular vein were catheterized. The carotid catheter was connected to an electronic manometer attached to a computer recorder through an analog-to-digital converter. The mean basal level of the arterial blood pressure was determined as follows: For a period of 30 seconds, the digital signal pertaining to the arterial blood pressure was recorded at 1-second intervals. The mean value of these thirty individual measurements was then determined and recorded.
After determining the mean basal level of the arterial blood pressure, a particular dose of the test or control substance was administered in a volume of 0.2 ml of physiological saline to an animal through the jugular venous catheter. Measurements of the arterial blood pressure were then taken during the next 1.5 hours as follows: (i) during the first 5 minutes, the arterial blood pressure was being monitored continuously and mean values were calculated electronically and recorded at each of the ten different 30-second intervals (i.e., 30th second, 60th second, etc.); (ii) thereafter, mean values of the arterial blood pressure were calculated at the first seconds of 10th minute, 15th minute, 30th minute, 45th minute, 60th minute, 75th minute, and 90th minute after administration of the respective test or control substance.

[3] = test system: ischemic myocardium; assay: Inotropic function and arrhythmias of ischemic isolated rat heart during reperfusion; conditions: for Diastolic Pressure in Ischemic Left Ventricle (% of Preischemic Mean Value) / Evolving Pressure in Ischemic Left Ventricle (% of Preischemic Mean Value) / Heart Rate during Reperfusion (% of Preischemic Mean Value) / Maximal Rate of Increase of Left Ventricle Pressure (% of Preischemic Mean Value) / Maximal Rate of Left Ventricle Pressure Decrease (% of Preischemic Mean Value) / Systolic Pressure in Ischemic Left Ventricle (% of Preischemic Values): 14.0 mg/l
Source text: Rat hearts were surgically isolated from white random-bred rats weighing approximately 250 g. The isolated hearts were perfused with a standard oxygenated (95% O2 and 5% CO2) Krebs-Henseleit solution in a retrograde manner (i.e., according to Langendorff and using a constant perfusate pressure of 80 cm of water). The hearts maintained a steady spontaneous contraction rate. A latex balloon catheter connected to a pressure transducer (EMT-746, Siemens-Elema, Sweden) was inserted into the left ventricle of each heart to measure the inotropic function of the heart (as described in Example 3, above). The left ventricle pressure variation curve was recorded using a polygraph.
Stage I ("adaptation regimen") consisted of a 30-minute adaptation of the respective rat hearts to the perfusion regimen. The baseline parameters for the inotropic function of each heart were recorded to establish the preischemic values for the following measured parameters: (i) the systolic pressure in the left ventricle (Psyst. mm Hg); (ii) the diastolic pressure in the left ventricle (Pdiast. mm Hg); (iii) the evolving pressure (Pev. =Psyst. -Pdist. mm Hg); (iv) the maximal rate of increase of left ventricle pressure (+dp/dtmax mm Hg/sec); and (v) the maximal rate of decrease of left ventricle pressure (-dp/dtmax mm Hg/sec). In addition, the heart rate (HR) of each heart was determined from the recordings made of the variations in the left ventricle pressure over time. In Stage II ("ischemic simulation"), ischemia was induced in each heart by shutting off the supply of the perfusion solution to the heart. Approximately 30 minutes later, Stage III ("reperfusion regimen") was initiated by restarting the reperfusion and including in the perfusate solution a test or control substance at one of the following respective concentrations: a perfusate solution of a test substance comprised 0.06, 0.6, or 6.0 mg/l GE, or 0.06, 0.6, or 6.0 mg/l VT, respectively; a perfusate solution of the positive control substance comprised 14 mg/l inosine. Inosine is a nucleoside preparation that produces a favorable inotropic effect on both normal and ischemic myocardium while inducing no rhythm disturbances or acceleration of ischemic contracture development. Woollard et al., Cardiovasc. Res. 15: 659-67 (1981). Inosine was obtained from Sigma Chemical Company, USA (Cat. Code I-4125; lot number 81H0227). The negative control substance comprised reperfusion using a standard oxygenated Krebs-Henseleit solution.
For each heart, the inotropic function of the myocardium was evaluated by measuring the parameters (i) through (v), discussed above, and the heart rate. These six parameters were recorded continuously throughout the study (i.e., beginning with Stage I and continuing through Stage III). The recordings were analyzed at the following times: (a) immediately before beginning Stage II (that is, after the 30-minute Stage I adaptation period, but before stopping perfusion); and (b) at 1, 5, 10, 20, and 30 minutes into the Stage III reperfusion.
The frequency and duration of rhythm disturbances in the 30-minute Stage III reperfusion period were determined by measuring the following parameters: (i) the number of ventricular extrasystoles; (ii) the overall duration of ventricular tachycardias (in seconds); and (iii) the overall duration of ventricular fibrillation (in seconds). Each dose of the test substance was tested on nine isolated hearts.

[4] = 14.1 mg/l, 30-minute reperfusion

## CC(C)NCC(O)c1ccc(O)c(O)c1 (stereo not drawn) [Isoproterenol, isoproterenol, reference compound]
[1]
  +dp/dtmax % of Basal Level: 122%
  +dp/dtmax Subst. Level: 2110 mm Hg/sec
  -dp/dtmax % of Basal Level: 112%
  -dp/dtmax Subst. Level: 1140 mm Hg/sec
  HR % of Basal Level: 133%
  HR abs, Subst. Level: 255 hb/min
  Pdiast % of Basal Level: 120%
  Pdiast abs, Subst. Level: 12 mm Hg
  Pev % of Basal Level: 118%
  Pev Subst. Level: 108 mm Hg
  Psyst % of Basal Level: 117%

## CC[N+](C)(C)CCN(C)CC[N+](C)(C)CC [Pentamine, pentamine, reference compound]
[2]; 1 min
  Arterial Blood Pressure (Basal Level = 100.00): 87.09%
[2]; 2 min
  Arterial Blood Pressure (Basal Level = 100.00): 68.18%
[2]; 3 min
  Arterial Blood Pressure (Basal Level = 100.00): 70.82%
[2]; 4 min
  Arterial Blood Pressure (Basal Level = 100.00): 69.29%
[2]; 5 min
  Arterial Blood Pressure (Basal Level = 100.00): 74.11%
[2]; 10 min
  Arterial Blood Pressure (Basal Level = 100.00): 91.63%
[2]; 15 min
  Arterial Blood Pressure (Basal Level = 100.00): 89.94%
[2]; 30 min
  Arterial Blood Pressure (Basal Level = 100.00): 86.95%
[2]; 45 min
  Arterial Blood Pressure (Basal Level = 100.00): 93.89%
[2]; 60 min
  Arterial Blood Pressure (Basal Level = 100.00): 100.31%
[2]; 75 min
  Arterial Blood Pressure (Basal Level = 100.00): 94.38%
[2]; 90 min
  Arterial Blood Pressure (Basal Level = 100.00): 93.22%

## OC[C@H]1O[C@@H](n2cnc3c(O)ncnc32)[C@H](O)[C@@H]1O [Inosine, reference compound]
[3]; 1 min reperfusion
  Diastolic Pressure in Ischemic Left Ventricle (% of Preischemic Mean Value): 92.35%
  Evolving Pressure in Ischemic Left Ventricle (% of Preischemic Mean Value): 57.13%
  Heart Rate during Reperfusion (% of Preischemic Mean Value): 45.37%
  Maximal Rate of Increase of Left Ventricle Pressure (% of Preischemic Mean Value): 50.85%
  Maximal Rate of Left Ventricle Pressure Decrease (% of Preischemic Mean Value): 41.91%
  Systolic Pressure in Ischemic Left Ventricle (% of Preischemic Values): 62.15%
[3]; 5 min reperfusion
  Diastolic Pressure in Ischemic Left Ventricle (% of Preischemic Mean Value): 111.83%
  Evolving Pressure in Ischemic Left Ventricle (% of Preischemic Mean Value): 57.59%
  Heart Rate during Reperfusion (% of Preischemic Mean Value): 69.97%
  Maximal Rate of Increase of Left Ventricle Pressure (% of Preischemic Mean Value): 54.25%
  Maximal Rate of Left Ventricle Pressure Decrease (% of Preischemic Mean Value): 65.94%
  Systolic Pressure in Ischemic Left Ventricle (% of Preischemic Values): 66.17%
[3]; 10 min reperfusion
  Diastolic Pressure in Ischemic Left Ventricle (% of Preischemic Mean Value): 139.32%
  Evolving Pressure in Ischemic Left Ventricle (% of Preischemic Mean Value): 82.33%
  Heart Rate during Reperfusion (% of Preischemic Mean Value): 67.52%
  Maximal Rate of Increase of Left Ventricle Pressure (% of Preischemic Mean Value): 82.35%
  Maximal Rate of Left Ventricle Pressure Decrease (% of Preischemic Mean Value): 78.85%
  Systolic Pressure in Ischemic Left Ventricle (% of Preischemic Values): 86.05%
[3]; 20 min reperfusion
  Diastolic Pressure in Ischemic Left Ventricle (% of Preischemic Mean Value): 148.63%
  Evolving Pressure in Ischemic Left Ventricle (% of Preischemic Mean Value): 94.19%
  Heart Rate during Reperfusion (% of Preischemic Mean Value): 79.97%
  Maximal Rate of Increase of Left Ventricle Pressure (% of Preischemic Mean Value): 83.58%
  Maximal Rate of Left Ventricle Pressure Decrease (% of Preischemic Mean Value): 91.83%
  Systolic Pressure in Ischemic Left Ventricle (% of Preischemic Values): 99.29%
[3]; 30 min reperfusion
  Diastolic Pressure in Ischemic Left Ventricle (% of Preischemic Mean Value): 149.42%
  Evolving Pressure in Ischemic Left Ventricle (% of Preischemic Mean Value): 91.68%
  Heart Rate during Reperfusion (% of Preischemic Mean Value): 75.60%
  Maximal Rate of Increase of Left Ventricle Pressure (% of Preischemic Mean Value): 77.85%
  Maximal Rate of Left Ventricle Pressure Decrease (% of Preischemic Mean Value): 93.88%
  Systolic Pressure in Ischemic Left Ventricle (% of Preischemic Values): 96.62%
[3]; 14 mg/l, after approximately 10 to 20 minutes
  -dp/dtmax, % of preischemic value: about 80%
[3]; [4]
  Number of Ventricular Extrasystoles: 230.4
  Overall Duration of Ventricular Fibrillation: 52.9 s
  Overall Duration of Ventricular Tachycardia: 1.3 s
